Test results as given in patent US20260317320A1, “C5AR1 ANTAGONISTS AND USES THEREOF” (Vanqua Bio, Inc., priority 2022, published 2026).
Like-named read-outs stand apart in the source and are kept apart here.

Columns and labels:
[1] = target: T1, complement C5a receptor 1 (C5aR1) (Homo sapiens, UniProt P21730); experiment: β-arrestin recruitment via C5aR1 activation in live CHO-K1 cells (PathHunter), antagonist mode; format: cell-based; conditions: antagonist mode; recombinant hC5a (EC90) as competing natural agonist; live CHO-K1 cells; read-out: [Antagonist] B-arrestin2 recruitment: Average IC50
T1 construct: β-galactosidase fragment (PathHunter enzyme complementation); host or cells: CHO-K1 (PathHunter CHO-K1 C5aR1 β-arrestin cell line)
T1 sequence (P21730 1-350): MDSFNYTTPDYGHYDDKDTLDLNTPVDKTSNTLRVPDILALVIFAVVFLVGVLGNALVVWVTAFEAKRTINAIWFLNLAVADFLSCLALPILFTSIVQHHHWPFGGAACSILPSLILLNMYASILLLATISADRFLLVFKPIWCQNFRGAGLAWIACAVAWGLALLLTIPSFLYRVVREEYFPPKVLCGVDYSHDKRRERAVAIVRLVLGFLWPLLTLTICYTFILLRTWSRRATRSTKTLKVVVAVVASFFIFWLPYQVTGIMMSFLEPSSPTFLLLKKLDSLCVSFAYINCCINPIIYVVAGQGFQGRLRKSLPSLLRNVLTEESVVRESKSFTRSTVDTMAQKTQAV
How it was run: (§1)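 Live CHO-K1 cells expressing β-galactosidase fragments fused to β-arrestin and C5aR1; recruitment is read by fragment complementation. In agonist mode compounds are tested alone; in antagonist mode they compete against recombinant hC5a at EC90. IC50 reported in binned ranges.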

[2] = target: T1, complement C5a receptor 1 (C5aR1); experiment: β-arrestin recruitment via C5aR1 activation in live CHO-K1 cells (PathHunter), agonist mode; format: cell-based
How it was run: as §1

Cc1cccc(F)c1N1CCC(c2cc3nccnc3n(Cc3nccnc3OC(F)F)c2=O)CC1 [compound 155, 5-((3-(Difluoromethoxy)pyrazin-2-yl)methyl)-7-(1-(2-fluoro-6-methylphenyl)piperidin-4-yl)pyrido[2,3-b]pyrazin-6(5H)-one]
IC50 [1]: < 500 nM
[Agonist] B-arrestin2 recruitment: Average EC50 (nM) ([2]; at 10 μM): Non-Active at 10 μM

Cc1cnc2cc(C3CCN(c4nccnc4C(F)(F)F)CC3)c(=O)n(Cc3ncccc3C(F)(F)F)c2n1 [compound 156, 3-Methyl-7-(1-(3-(trifluoromethyl)pyrazin-2-yl)piperidin-4-yl)-5-((3-(trifluoromethyl)pyridin-2-yl)methyl)pyrido[2,3-b]pyrazin-6(5H)-one]
IC50 [1]: 500 to 5000 nM
[Agonist] B-arrestin2 recruitment: Average EC50 (nM) ([2]; at 10 μM): Non-Active at 10 μM

Cc1cnc2cc(C3CCN(c4cccnc4C(F)(F)F)CC3)c(=O)n(Cc3ncccc3C(F)(F)F)c2n1 [compound 157, 3-Methyl-5-((3-(trifluoromethyl)pyridin-2-yl)methyl)-7-(1-(2-(trifluoromethyl)pyridin-3-yl)piperidin-4-yl)pyrido[2,3-b]pyrazin-6(5H)-one]
IC50 [1]: 500 to 5000 nM
[Agonist] B-arrestin2 recruitment: Average EC50 (nM) ([2]; at 10 μM): Non-Active at 10 μM

Cc1cnc2cc([C@H]3CC[C@H](c4nccs4)CC3)c(=O)n(Cc3ncccc3C(F)(F)F)c2n1 [compound 158, 3-Methyl-7-((1r,4r)-4-(thiazol-2-yl)cyclohexyl)-5-((3-(trifluoromethyl)pyridin-2-yl)methyl)pyrido[2,3-b]pyrazin-6(5H)-one]
IC50 [1]: 500 to 5000 nM
[Agonist] B-arrestin2 recruitment: Average EC50 (nM) ([2]; at 10 μM): Non-Active at 10 μM

Cc1cccc(F)c1N1CCC(c2cc3nccnc3n(Cc3nccn(C(F)F)c3=O)c2=O)CC1 [compound 159, 5-((4-(Difluoromethyl)-3-oxo-3,4-dihydropyrazin-2-yl)methyl)-7-(1-(2-fluoro-6-methylphenyl)piperidin-4-yl)pyrido[2,3-b]pyrazin-6(5H)-one]
IC50 [1]: 5000 to 100000 nM
[Agonist] B-arrestin2 recruitment: Average EC50 (nM) ([2]; at 10 μM): Non-Active at 10 μM

Cc1cnc2cc(C3CCN(c4cnccc4C(F)F)CC3)c(=O)n(Cc3ncccc3C(F)(F)F)c2n1 [compound 162, 7-(1-(4-(Difluoromethyl)pyridin-3-yl)piperidin-4-yl)-3-methyl-5-((3-(trifluoromethyl)pyridin-2-yl)methyl)pyrido[2,3-b]pyrazin-6(5H)-one]
IC50 [1]: < 500 nM
[Agonist] B-arrestin2 recruitment: Average EC50 (nM) [2]: Non-Active

Cc1cnc2cc([C@H]3CC[C@H](c4ncsc4C)CC3)c(=O)n(Cc3ncccc3C(F)(F)F)c2n1 [compound 163, 3-Methyl-7-((1r,4r)-4-(5-methylthiazol-4-yl)cyclohexyl)-5-((3-(trifluoromethyl)pyridin-2-yl)methyl)pyrido[2,3-b]pyrazin-6(5H)-one]
IC50 [1]: 500 to 5000 nM
[Agonist] B-arrestin2 recruitment: Average EC50 (nM) ([2]; at 10 μM): Non-Active at 10 μM

Cc1cnc2cc([C@H]3CC[C@H](c4scnc4C)CC3)c(=O)n(Cc3ncccc3C(F)(F)F)c2n1 [compound 164, 3-Methyl-7-((1r,4r)-4-(4-methylthiazol-5-yl)cyclohexyl)-5-((3-(trifluoromethyl)pyridin-2-yl)methyl)pyrido[2,3-b]pyrazin-6(5H)-one]
IC50 [1]: 500 to 5000 nM
[Agonist] B-arrestin2 recruitment: Average EC50 (nM) ([2]; at 10 μM): Non-Active at 10 μM

Cc1cnc2cc(C3CCN(c4nnccc4C(F)(F)F)CC3)c(=O)n(Cc3ncccc3C(F)(F)F)c2n1 [compound 165, 3-Methyl-7-(1-(4-(trifluoromethyl)pyridazin-3-yl)piperidin-4-yl)-5-((3-(trifluoromethyl)pyridin-2-yl)methyl)pyrido[2,3-b]pyrazin-6(5H)-one]
IC50 [1]: < 500 nM
[Agonist] B-arrestin2 recruitment: Average EC50 (nM) ([2]; at 10 μM): Non-Active at 10 μM

Cc1cnc2cc([C@H]3CC[C@H](c4ncsc4C)CC3)c(=O)n(Cc3ncccc3OC(F)(F)F)c2n1 [compound 166, 3-Methyl-7-((1r,4r)-4-(5-methylthiazol-4-yl)cyclohexyl)-5-((3-(trifluoromethoxy)pyridin-2-yl)methyl)pyrido[2,3-b]pyrazin-6(5H)-one]
IC50 [1]: < 500 nM
[Agonist] B-arrestin2 recruitment: Average EC50 (nM) ([2]; at 10 μM): Non-Active at 10 μM

Cc1cnc2cc(C3CCN(c4c(C)cccc4F)CC3)c(=O)n(Cc3nccnc3OC(F)F)c2n1 [compound 167, 5-((3-(Difluoromethoxy)pyrazin-2-yl)methyl)-7-(1-(2-fluoro-6-methylphenyl)piperidin-4-yl)-3-methylpyrido[2,3-b]pyrazin-6(5H)-one]
IC50 [1]: < 500 nM
[Agonist] B-arrestin2 recruitment: Average EC50 (nM) ([2]; at 10 μM): Non-Active at 10 μM

CCOc1nccnc1Cn1c(=O)c([C@H]2CC[C@H](c3c(C)cccc3F)CC2)cc2ncc(C)nc21 [compound 169, 5-((3-Ethoxypyrazin-2-yl)methyl)-7-((1r,4r)-4-(2-fluoro-6-methylphenyl)cyclohexyl)-3-methylpyrido[2,3-b]pyrazin-6(5H)-one]
IC50 [1]: < 500 nM
[Agonist] B-arrestin2 recruitment: Average EC50 (nM) ([2]; at 10 μM): Non-Active at 10 μM

FC(F)(F)c1cccnc1CN1CC(C2CCN(c3ncccc3Cl)CC2)=Cc2nccnc21 [compound 170, 7-(1-(3-Chloropyridin-2-yl)piperidin-4-yl)-5-((3-(trifluoromethyl)pyridin-2-yl)methyl)-5,6-dihydropyrido[2,3-b]pyrazine]
IC50 [1]: < 500 nM
[Agonist] B-arrestin2 recruitment: Average EC50 (nM) ([2]; at 10 μM): Non-Active at 10 μM

COc1nccnc1Cn1c(=O)c([C@H]2CC[C@H](c3c(C)cccc3F)CC2)cc2ncc(C)nc21 [compound 173, 7-((1r,4r)-4-(2-Fluoro-6-methylphenyl)cyclohexyl)-5-((3-methoxypyrazin-2-yl)methyl)-3-methylpyrido[2,3-b]pyrazin-6(5H)-one]
IC50 [1]: < 500 nM
[Agonist] B-arrestin2 recruitment: Average EC50 (nM) ([2]; at 10 μM): Non-Active at 10 μM

Cc1cnc2cc([C@H]3CC[C@H](c4c(C)cccc4F)CC3)c(=O)n(Cc3ncccc3C(F)F)c2n1 [compound 176, 5-((3-(Difluoromethyl)pyridin-2-yl)methyl)-7-((1r,4r)-4-(2-fluoro-6-methylphenyl)cyclohexyl)-3-methylpyrido[2,3-b]pyrazin-6(5H)-one]
IC50 [1]: < 500 nM
[Agonist] B-arrestin2 recruitment: Average EC50 (nM) [2]: Non-Active

Cc1cnc2cc([C@H]3CC[C@H](c4c(C)cccc4F)CC3)c(=O)n(Cc3ncccc3C(C)(F)F)c2n1 [compound 177, 5-((3-(1,1-Difluoroethyl)pyridin-2-yl)methyl)-7-((1r,4r)-4-(2-fluoro-6-methylphenyl)cyclohexyl)-3-methylpyrido[2,3-b]pyrazin-6(5H)-one]
IC50 [1]: < 500 nM
[Agonist] B-arrestin2 recruitment: Average EC50 (nM) [2]: Non-Active

Cc1cnc2cc([C@H]3CC[C@H](c4cnccc4C(F)F)CC3)c(=O)n(Cc3ncccc3C(F)(F)F)c2n1 [compound 178, 7-((1r,4r)-4-(4-(Difluoromethyl)pyridin-3-yl)cyclohexyl)-3-methyl-5-((3-(trifluoromethyl)pyridin-2-yl)methyl)pyrido[2,3-b]pyrazin-6(5H)-one]
IC50 [1]: < 500 nM
[Agonist] B-arrestin2 recruitment: Average EC50 (nM) [2]: Non-Active

Cc1cnc2cc([C@H]3CC[C@H](c4ncccc4C(F)F)CC3)c(=O)n(Cc3ncccc3C(F)(F)F)c2n1 [compound 179, 7-((1r,4r)-4-(3-(Difluoromethyl)pyridin-2-yl)cyclohexyl)-3-methyl-5-((3-(trifluoromethyl)pyridin-2-yl)methyl)pyrido[2,3-b]pyrazin-6(5H)-one]
IC50 [1]: < 500 nM
[Agonist] B-arrestin2 recruitment: Average EC50 (nM) ([2]; at 10 μM): Non-Active at 10 μM

Cc1cnc2cc([C@H]3CC[C@H](c4ncccc4C(F)(F)F)CC3)c(=O)n(Cc3ncccc3C(F)(F)F)c2n1 [compound 180, 3-Methyl-7-((1r,4r)-4-(3-(trifluoromethyl)pyridin-2-yl)cyclohexyl)-5-((3-(trifluoromethyl)pyridin-2-yl)methyl)pyrido[2,3-b]pyrazin-6(5H)-one]
IC50 [1]: < 500 nM
[Agonist] B-arrestin2 recruitment: Average EC50 (nM) ([2]; at 10 μM): Non-Active at 10 μM

Cc1cnc2cc(C3CCN(c4ccc5c(cnn5C)c4)CC3)c(=O)n(Cc3ncccc3C(F)(F)F)c2n1 [compound 181, 3-Methyl-7-(1-(1-methyl-1H-indazol-5-yl)piperidin-4-yl)-5-((3-(trifluoromethyl)pyridin-2-yl)methyl)pyrido[2,3-b]pyrazin-6(5H)-one]
IC50 [1]: 5000 to 100000 nM
[Agonist] B-arrestin2 recruitment: Average EC50 (nM) ([2]; at 10 μM): Non-Active at 10 μM

Cc1cnc2c(cc([C@H]3CC[C@H](c4c(C)cccc4F)CC3)c(=O)n2Cc2ncccc2C(F)(F)F)n1 [compound 182, 7-((1r,4r)-4-(2-Fluoro-6-methylphenyl)cyclohexyl)-2-methyl-5-((3-(trifluoromethyl)pyridin-2-yl)methyl)pyrido[2,3-b]pyrazin-6(5H)-one]
IC50 [1]: < 500 nM
[Agonist] B-arrestin2 recruitment: Average EC50 (nM) ([2]; at 10 μM): Non-Active at 10 μM

Cc1ccc2cc([C@H]3CC[C@H](c4c(C)cccc4F)CC3)c(=O)n(Cc3ncccc3C(F)(F)F)c2n1 [compound 183, 3-((1r,4r)-4-(2-Fluoro-6-methylphenyl)cyclohexyl)-7-methyl-1-((3-(trifluoromethyl)pyridin-2-yl)methyl)-1,8-naphthyridin-2(1H)-one]
IC50 [1]: < 500 nM
[Agonist] B-arrestin2 recruitment: Average EC50 (nM) ([2]; at 10 μM): Non-Active at 10 μM
